Assay results reported in patent publication US5639751A, “N-acyl-2,3-benzodiazepine derivatives for treating acute and chronic neurodegenerative disorders” (priority 1990, dated 1997).
Where a name gives a salt, the structure may show the parent alone. Read-outs that look alike come from different tables or passages of the source.

Columns and labels:
[1] = test system: male CFLP mice; assay: Anticonvulsive effect in mice, electroshock test; assay type: in vivo; conditions: Mus musculus, po, read-out: ED50 p.o., ES (electroshock)
Method: (§1) The anticonvulsive effect of the compounds of the formula (I) was measured by using the electroshock test [J. Pharmacol. Exp. Ther. 106, 319 (1952)], furthermore by using various chemical agents such as pentetrazole [J. Pharmacol. Exp. Ther. 108, 168 (1953)], strychnine [J. Pharmacol. Exp. Ther. 129, 75 (1960)], bemegride, nicotine and 4-aminopyridine. The test compounds were orally administered in 3 doses, to 10 male CFLP mice per dose.

[2] = test system: male CFLP mice; assay: Anticonvulsive effect in mice, pentetrazole; assay type: in vivo; conditions: Mus musculus, po, read-out: ED50 p.o., Pentetrazole
Method: as §1

[3] = test system: CFLP mice; assay: Inclined screen test in mice; assay type: in vivo; conditions: Mus musculus, ip, read-out: ED50 i.p., inclined screen test
Excerpt: In Randall's inclined screen test [J. Pharmacol. Exp. Ther. 129, 163 (1960)] the compounds were applied in 3 i.p. doses to 10 CFLP mice per dose.

[4] = test system: mice; assay: Rotarod test in mice; assay type: in vivo; conditions: Mus musculus, ip, read-out: ED50 i.p., rotarod test
Excerpt: The rotarod test was used to measure muscular tone and motor co-ordination [J. Am. Pharm. Assoc. 46, 208 (1957)].

[5] = test system: male CFLP mice; assay: Anticonvulsive effect in mice, strychnine; assay type: in vivo; conditions: Mus musculus, po, read-out: ED50 p.o., Strychnine
Method: as §1

[6] = test system: male CFLP mice; assay: Anticonvulsive effect in mice, bemegride; assay type: in vivo; conditions: Mus musculus, po, read-out: ED50 p.o., Bemegride
Method: as §1

[7] = test system: male CFLP mice; assay: Anticonvulsive effect in mice, nicotine; assay type: in vivo; conditions: Mus musculus, po
Method: as §1

[8] = test system: male CFLP mice; assay: Anticonvulsive effect in mice, 4-aminopyridine; assay type: in vivo; conditions: Mus musculus, po, read-out: ED50 p.o., 4-AP (4-aminopyridine)
Method: as §1

[9] = Acute toxicity in mice; conditions: mouse, in vivo
Method: The cause of mortality was respiratory insufficiency developing within 1 to 2 hours after i.p. administration and within 10 to 20 hours after oral application.

Row | Structure (SMILES) | ED50 ([1]; mice, p.o.) | ED50 ([2]; mice, p.o.) | ED50 [3] | ED50 [4] | ED50 [1] | ED50 [2] | ED50 [5] | ED50 [6] | ED50 [7] | ED50 [8] | ED50 ([6]; mice, p.o.) | ED50 ([8]; mice, p.o.) | LD50 ([9]; ip, read-out: LD50 i.p.) | LD50 ([9]; po, read-out: LD50 p.o.) | ED50 ([3]; mice, i.p.) | ED50 ([4]; mice, i.p.)
1 | CC1=NN=C(c2ccc(NC(=O)C(C)N)cc2)c2cc3c(cc2C1)OCO3 (racemic) [Example 69] | 57 mg/kg | > 100 mg/kg |  |  |  |  |  |  |  |  |  |  |  |  |  | 
2 | NCC(CC(=O)O)c1ccc(Cl)cc1 (stereo not drawn) [Baclofen, β-(aminomethyl)-4-chlorobenzeneprioionic acid, reference compound] |  |  | 26 mg/kg | 12.5 mg/kg |  |  |  |  |  |  |  |  |  |  |  | 
3 | CCC(=O)N1N=C(c2ccc(N)cc2)c2cc3c(cc2CC1C)OCO3 (stereo not shown) [Example 18] |  |  | 31 mg/kg | 7.5 mg/kg | 17.5 mg/kg | 29 mg/kg | > 100 mg/kg | 20 mg/kg | 16 mg/kg | 16 mg/kg |  |  |  |  |  | 
4 | CC(=O)N(C(C)=O)c1ccc(C2=NN(C(C)=O)C(C)Cc3cc4c(cc32)OCO4)cc1 (stereo not shown) [Example 39, 1-(4-Diacetylaminophenyl)-3-acetyl-4-methyl-7,8-methylenedioxy-3,4-dihydro-5H-2,3-benzodiazepine] | 53 mg/kg | 170 mg/kg |  |  |  |  |  |  |  |  | > 200 mg/kg | 29 mg/kg | 271 mg/kg | > 600 mg/kg |  | 
5 | CC(=O)Nc1ccc(C2=NN(C(C)=O)C(C)Cc3cc4c(cc32)OCO4)cc1 (stereo not shown) [Example 42, 1-(4-Acetylaminophenyl)-3-acetyl-4-methyl-7,8-methylenedioxy-3,4-dihydro-5H-2,3-benzodiazepine] | 24 mg/kg | 33 mg/kg |  |  |  |  | 28 mg/kg |  | 155 mg/kg |  | 24 mg/kg | 34 mg/kg | 120 mg/kg | 185 mg/kg | 42 mg/kg | 8.1 mg/kg
6 | CCC(=O)Nc1ccc(C2=NN(C(=O)CC)C(C)Cc3cc4c(cc32)OCO4)cc1 (stereo not shown) [Example 45, 1-(4-Propionylaminophenyl)-3-propionyl-4-methyl-7,8-methylenedioxy-3,4-dihydro-5H-2,3-benzodiazepine] | 27 mg/kg | 44 mg/kg |  |  |  |  | > 100 mg/kg |  | 23 mg/kg |  | 51 mg/kg | 34 mg/kg | 98.4 mg/kg | 206 mg/kg | 35 mg/kg | 10 mg/kg
7 | CC(=O)N1N=C(c2ccc(NC=O)cc2)c2cc3c(cc2CC1C)OCO3 (stereo not shown) [Example 46] | 20 mg/kg | 57 mg/kg |  |  |  |  | > 100 mg/kg |  | 80 mg/kg |  | 56 mg/kg | 17 mg/kg | 173 mg/kg | 162 mg/kg |  | 
8 | CCC(=O)Nc1ccc(C2=NN(C(C)=O)C(C)Cc3cc4c(cc32)OCO4)cc1 (stereo not shown) [Example 48] | 10.5 mg/kg | 30.5 mg/kg |  |  |  |  | > 100 mg/kg |  | 25 mg/kg |  | 33 mg/kg | 20 mg/kg | 103 mg/kg | 149 mg/kg | 20.5 mg/kg | 7.2 mg/kg
9 | CCC(=O)N1N=C(c2ccc(NC(C)=O)cc2)c2cc3c(cc2CC1C)OCO3 (stereo not shown) [Example 49] | 25 mg/kg | 53 mg/kg |  |  |  |  | > 100 mg/kg |  | 45 mg/kg |  | 43 mg/kg | 28 mg/kg |  |  | 36 mg/kg | 9.4 mg/kg
10 | COCC(=O)Nc1ccc(C2=NN(C(C)=O)C(C)Cc3cc4c(cc32)OCO4)cc1 (stereo not shown) [Example 52] | 17.5 mg/kg | 36 mg/kg |  |  |  |  | > 100 mg/kg |  | 13.5 mg/kg |  | 29 mg/kg | 24 mg/kg | 117 mg/kg | 188 mg/kg | 21 mg/kg | 4.8 mg/kg
11 | CCC(=O)Nc1ccc(C2=NN(C=O)C(C)Cc3cc4c(cc32)OCO4)cc1 (stereo not shown) [Example 60] | 24 mg/kg | 62 mg/kg |  |  |  |  |  |  |  |  |  |  |  |  |  | 
12 | CC(=O)N1N=C(c2ccc(NC(=O)C(F)(F)F)cc2)c2cc3c(cc2CC1C)OCO3 (stereo not shown) [Example 62] | 12.5 mg/kg | 56 mg/kg |  |  |  |  | > 100 mg/kg |  | 31 mg/kg |  | 36 mg/kg | 29 mg/kg | 136 mg/kg | 160 mg/kg | 25.5 mg/kg | 7.8 mg/kg
13 | CC1=NN=C(c2ccc(NC(=O)CN)cc2)c2cc3c(cc2C1)OCO3 [Example 66, 1-(4-Glycylaminophenyl)-4-methyl-7,8-methylenedioxy-5H-2,3-benzodiazepine] | 42 mg/kg | 135 mg/kg |  |  |  |  | 105 mg/kg |  | 105 mg/kg |  | > 100 mg/kg | 84 mg/kg | 205 mg/kg | 281 mg/kg | 52 mg/kg | 18.5 mg/kg
14 | CC(=O)N1N=C(c2ccc(NC(=O)CN)cc2)c2cc3c(cc2CC1C)OCO3 (stereo not shown) [Example 73] | 16 mg/kg | 62 mg/kg |  |  |  |  | > 100 mg/kg |  | 53 mg/kg |  | 49 mg/kg | 28 mg/kg | 143 mg/kg | 168 mg/kg | 27 mg/kg | 6.3 mg/kg
15 | CC(=O)N1N=C(c2ccc(NC(=O)CN(C)C)cc2)c2cc3c(cc2CC1C)OCO3 (stereo not shown) [Example 107, 1-[4-(N,N-dimethylglycylamino)phenyl]-3-acetyl-4-methyl-7,8-methylenedioxy-3,4-dihydro-5H-2,3-benzodiazepine] | 23.5 mg/kg | 120 mg/kg |  |  |  |  | 22.8 mg/kg |  | 34.2 mg/kg |  | 25.4 mg/kg | 36.8 mg/kg |  |  |  | 
16 | CCN(CC)CC(=O)Nc1ccc(C2=NN(C(C)=O)C(C)Cc3cc4c(cc32)OCO4)cc1 (stereo not shown) [Example 108, 1-[4-(N,N-diethylglycylamino)phenyl]-3-acetyl-4-methyl-7,8-methylenedioxy-3,4-dihydro-5H-2,3-benzodiazepine] | 27 mg/kg | > 100 mg/kg |  |  |  |  |  |  |  |  |  |  |  |  |  | 
17 | CC(=O)N1N=C(c2ccc(NC(=O)CN3CCCC3)cc2)c2cc3c(cc2CC1C)OCO3 (stereo not shown) [Example 109, 1-[4-(1-Pyrrolidinoacetylamino)phenyl]-3-acetyl-4-methyl-7,8-methylenedioxy-3,4-dihydro-5H-2,3-benzodiazepine hydrogen fumarate] | 21 mg/kg | > 100 mg/kg |  |  |  |  |  |  |  |  |  |  |  |  |  | 
18 | CNC(=O)N1N=C(c2ccc(NC(=O)CN)cc2)c2cc3c(cc2CC1C)OCO3 (stereo not shown) [Example 115, 1-(4-Glycylaminophenyl)-3-methylcarbamoyl-4-methyl-7,8-methylenedioxy-3,4-dihydro-5H-2,3-benzodiazepine] | 17.1 mg/kg | 23.9 mg/kg |  |  |  |  |  |  |  |  |  |  | 90.7 mg/kg | 200 to 250 mg/kg | 16.1 mg/kg | 7.3 mg/kg
19 | O=C1NC(=O)C(c2ccccc2)(c2ccccc2)N1 [Phenytoin, 5,5-diphenyl-2,4-imidazolidinedione, reference compound] | 10 mg/kg | > 400 mg/kg |  |  |  |  | 160 mg/kg |  | 12 mg/kg |  | > 200 mg/kg |  |  |  |  | 
